From US20240043448A1, “Small Molecule Inhibitors of KRAS G12C Mutant” (Merck Sharp & Dohme LLC, priority 2019, published 2024)
Where two headings read alike, the source gives them in different places.

Experiments:
[1] = molecular target: Biotinylated KRAS G12C protein (Homo sapiens (Human), UniProt P01116, C118S/C51S/C80L/G12C); experiment: SOS-catalyzed nucleotide exchange assay (TR-FRET); assay type: biochemical; settings: in vitro apparent potency; preincubation time of 60 minutes prior to addition of SOS
Protocol: The SOS-catalyzed nucleotide exchange assay utilizes a preformed complex of recombinant biotinylated KRAS protein containing G12C/C51S/C80L/C118S mutations (183 amino acids; biotin on K10; leader sequence which is an AviTag; referred to as SEQ ID NO: 1 or “Biotinylated KRAS G12C protein” hereafter), Bodipy-GDP, and Terbium-streptavidin. Compounds are added to this complex and then after incubation for 60 minutes, the mixture is treated with recombinant SOS protein and unlabeled GTP. Small molecule inhibitors stabilize the Bodipy-GDP complex whereas the untreated protein rapidly exchanges Bodipy-GDP for unlabeled GTP resulting in reduced TR-FRET signal.
Biotinylated KRAS G12C protein (SEQ ID NO: 1) is diluted to 2 μM in an EDTA buffer (20 mM HEPES, 150 mM sodium chloride, 10 mM EDTA, and 0.01% Tween) and incubated at room temperature for one hour. This mixture is then further diluted to 90 nM in an assay buffer (20 mM HEPES, 150 mM sodium chloride, 10 mM magnesium chloride, and 0.005% Tween) containing 15 nM of Terbium-Streptavidin (Invitrogen, catalog #PV3577) and 900 nM of Bodipy-GDP and incubated at room temperature for six hours. This solution is referred to as Biotinylated KRAS G12C mixture.
Each test compound (10 mM stock in DMSO) is diluted in DMSO to make a 10-point, 3-fold dilution series in a 384-well low dead volume microplate (Labcyte, catalog #LP-0200). Once titrations are made, 10 nL of the diluted compounds is acoustically dispensed into a 384-well plate (Corning, catalog #3820) using an Echo 550 (Labcyte).
Each well of the plate receives 3 μL Biotinylated KRAS G12C mixture that had been incubating for six hours and 3 μL of assay buffer using a BioRAPTR (Beckman Coulter) and is incubated at room temperature for 60 minutes. Each well then receives 3 μL of 240 nM recombinant human SOS protein and 9 mM GTP (Sigma, G8877) in assay buffer and is incubated at room temperature for 60 minutes.
The time-resolved fluorescence resonance energy transfer signal of the plate is measured on an Envision (PerkinElmer) plate reader: Excitation filter=340 nm; emission1=495 nm; emission2=520 nm; dichroic mirror=D400/D505; delay time=100 μs. The signal of each well is determined as the ratio of the emission at 520 nm to that at 495 nm. Percent effect of each well is determined after normalization to control wells containing DMSO (no effect) or a saturating concentration of inhibitor (max effect). The apparent effect as a function of compound concentration is fit to a four parameter logistic equation.

phospho-ERK = experiment: Cellular phospho-ERK assay; assay type: cell-based; settings: NCI-H358 cells, 2 hour incubation, ratio of p-Erk vs total Erk, read-out: IC50 (nM) pERK (Cell)
Protocol: NCI-H358 cells (ATCC® CRL-5807™) were cultured in T150 flask in growth medium (RPMI medium 1640-GlutaMAX™-I (ThermoFisher Scientific 61870) containing 10% fetal bovine serum (ThermoFisher Scientific 10091148)). The cells were harvested in growth medium after TrypLE (ThermoFisher scientific 12604021) digestion and were seeded in a 384-well collagen coated cell culture plate (Corning 356702) at a density of 15,000 cells/well, and incubated at 37° C., 5% CO2 overnight. The compound dose-response titrations were prepared and appropriate amounts of compounds were dispensed in a 384-well intermediate plate using an Echo 550 liquid handler. RPMI medium 1640-GlutaMAX™-I were added to the intermediate plate and transferred to 384-well cell culture plate, which was incubated at 37° C., 5% CO2 for 2 hours. After removal of medium from the plate, cells were lysed in lysis buffer from Alpha SureFire® Ultra™ Multiplex p-Erk and total Erk assay kit (PerkinElmer MPSU-PTERK) containing Halt™ Protease and Phosphotase inhibitor cocktail (ThermoFisher Scientific 78446) at room temperature with constant shaking at 300 rpm for 30 minutes. The cell lysates were then transferred to OptiPlate-384 plate (PerkinElmer 6005620) and the phosphorylation of Erk and total Erk levels were detected by Alpha SureFire Ultra Multiplex p-Erk kit (PerkinElmer MPSU-PTERK) following the manufacturer's protocol. Assay plates were read on an EnVision Multimode Plate Reader (PerkinElmer), and the ratio of p-Erk vs total Erk in each well was used as the final readout. Dose response curves were analyzed using a 4-parameter logistic model to calculate IC50 values using spotfire software.

| Compound | IC50 [1] | IC50 (phospho-ERK) | IC50 (phospho-ERK; Homo sapiens, NCI-H358, 2 h) |
| --- | --- | --- | --- |
| C=CC(=O)N1C[C@H](C)N(c2nc(=O)n3c4nc(c(F)cc24)-c2c(cccc2C(F)(F)F)OCCOc2ccnc(C(C)C)c2-3)C[C@H]1C [Example 73, 2-[(2S,5R)-2,5-dimethyl-4-(prop-2-enoyl)piperazin-1-yl]-20-fluoro-6-(propan-2-yl)-17-(trifluoromethyl)-11,12-dihydro-4H-1,18-(ethanediylidene)pyrido[4,3-e]pyrimido[1,6-g][1,4,7,9]benzodioxadiazacyclododecin-4-one] | 6.5 nM | 13 nM |  |
| C=CC(=O)N1C[C@H](C)N(c2nc(=O)n3c4nc(c(F)cc24)-c2cc(C(F)(F)F)ccc2OCCOc2ccnc(C(C)C)c2-3)C[C@H]1C [Example 86, 2-[(2S,5R)-2,5-dimethyl-4-(prop-2-enoyl)piperazin-1-yl]-20-fluoro-6-(propan-2-yl)-16-(trifluoromethyl)-11,12-dihydro-4H-1,18-(ethanediylidene)pyrido[4,3-e]pyrimido[1,6-g][1,4,7,9] benzodioxadiazacyclododecin-4-one] | 64 nM |  | 389 nM |
| 17,20-difluoro-2-[(2S)-2-methyl-4-(prop-2-enoyl)piperazin-1-yl]-6-(propan-2-yl)-10,11,12,13-tetrahydro-4H-1,18-ethenopyrido[4,3-e]pyrimido[1,6-g][1,7,9]benzotriazacyclododecin-4-one [Example 112] | 23 nM | 26 nM |  |
| C=CC(=O)N1C[C@H](C)N(c2nc(=O)n3c4nc(c(Cl)cc24)-c2c(ccc(F)c2F)OCCCc2ncnc(C(C)C)c2-3)C[C@H]1C [Example 74, 20-chloro-2-[(2S,5R)-2,5-dimethyl-4-(prop-2-enoyl)piperazin-1-yl]-16,17-difluoro-6-(propan-2-yl)-11,12-dihydro-4H,10H-1,18-ethenodipyrimido[4,5-e:1′,6′-g][1,7,9]benzoxadiazacyclododecin-4-one] | 0.51 nM |  | 3.6 nM |
| C=CC(=O)N1CCN(c2nc(=O)n3c4nc(c(F)cc24)-c2c(F)cccc2CCCOc2ccnc(C(C)C)c2-3)[C@@H](C)C1 (single isomer, unassigned) [Example 20b] | 1380 nM | 4760 nM |  |

Continued, values first:

| IC50 [1] | IC50 (phospho-ERK) | IC50 (phospho-ERK; Homo sapiens, NCI-H358, 2 h) | Compound |
| --- | --- | --- | --- |
| 17 nM | 154 nM |  | C=CC(=O)N1C[C@H](C)N(c2nc(=O)n3c4nc(c(F)cc24)-c2c(F)ccc(F)c2OCCOc2ccnc(C4CC4)c2-3)C[C@H]1C [Example 111, 6-cyclopropyl-2-[(2S,5R)-2,5-dimethyl-4-(prop-2-enoyl)piperazin-1-yl]-14,17,20-trifluoro-11,12-dihydro-4H-1,18-ethenopyrido[4,3-e]pyrimido[1,6-g][1,4,7,9]benzodioxadiazacyclododecin-4-one] |
| 0.71 nM |  | 12 nM | C=CC(=O)N1C[C@H](C)N(c2nc(=O)n3c4nc(c(F)cc24)-c2c(ccc(F)c2F)OCC2(CC2)Cc2ccnc(C(C)C)c2-3)C[C@H]1C [Example 92, 2′-[(2S,5R)-2,5-dimethyl-4-(prop-2-enoyl)piperazin-1-yl]-16′,17′,20′-trifluoro-6′-(propan-2-yl)-4′H,10′H,12′H-spiro[cyclopropane-1,11′-[13]oxa[3,5,7,19]tetraaza[1,18]ethenopyrido [4,3-e]pyrimido[1,6-g][1,7,9]benzoxadiazacyclododecin]-4′-one] |
| 31 nM |  | 572 nM | C=CC(=O)N1C[C@H](C)N(c2nc(=O)n3c4cc(c(F)cc24)-c2c(F)ccc(F)c2OCCOc2ccnc(C(C)C)c2-3)C[C@H]1C [Example 93, 2-[(2S,5R)-2,5-dimethyl-4-(prop-2-enoyl)piperazin-1-yl]-14,17,20-trifluoro-6-(propan-2-yl)-11,12-dihydro-4H-1,18-(ethanediylidene)pyrido[4,3-e]pyrimido[1,6-g][1,4,7]benzodioxazacyclododecin-4-one] |
